Results on 4 compounds are retold here after patent US10273236B2, “Macrocyclic factor XIa inhibitors bearing heterocyclic groups” (Bristol-Myers Squibb Company, priority 2014, dated 2019).

For data set [1] the following is noted: from C=CC[C@H](NC(=O)OC(C)(C)C)c1cc(-c2c(NC(=O)C(C=C)C(C)C)cnn2C)ccn1; rcm bond; 12-membered ring; Grubbs II (40 mol%); DCE; 36.7 mM; 120.0 °C.
For data set [2] the following is noted: from C=CC[C@H](NC(=O)OCc1ccccc1)c1cc(-c2c(NC(=O)[C@H](C)C=C)cnn2CCOC(C)(C)C)ccn1; rcm bond; 12-membered ring; Grubbs II (40 mol%); DCE; 35.6 mM; 120.0 °C; 0.5 h.
Data set [3] concerns the target factor XIa (Homo sapiens, UniProt P03951). As to conditions: value taken from WO 2014/022767, Table 1, page 89; cited from earlier work.

Sequence of factor XIa (P03951 388-625 limits assumed): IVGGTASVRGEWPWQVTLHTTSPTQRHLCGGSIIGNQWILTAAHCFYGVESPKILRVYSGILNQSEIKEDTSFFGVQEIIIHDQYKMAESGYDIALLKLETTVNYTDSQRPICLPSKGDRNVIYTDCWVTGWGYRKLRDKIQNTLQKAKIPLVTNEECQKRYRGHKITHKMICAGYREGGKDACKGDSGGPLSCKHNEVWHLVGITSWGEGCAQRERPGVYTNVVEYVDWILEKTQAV
Sequence of factor XIa (P03951 19-387 partner limits assumed): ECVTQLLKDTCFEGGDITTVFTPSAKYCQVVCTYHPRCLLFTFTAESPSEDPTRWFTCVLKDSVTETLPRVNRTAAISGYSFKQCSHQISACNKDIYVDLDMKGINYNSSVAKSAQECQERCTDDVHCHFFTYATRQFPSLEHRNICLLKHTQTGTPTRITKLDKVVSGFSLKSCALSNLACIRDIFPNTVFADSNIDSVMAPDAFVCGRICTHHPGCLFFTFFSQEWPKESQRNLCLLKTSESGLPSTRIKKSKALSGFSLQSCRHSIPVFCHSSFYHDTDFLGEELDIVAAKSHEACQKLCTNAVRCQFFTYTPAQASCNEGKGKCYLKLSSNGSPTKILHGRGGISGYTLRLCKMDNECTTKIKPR

Consider `CC(C)[C@@H]1/C=C/C[C@H](NC(=O)OC(C)(C)C)c2cc(ccn2)-c2c(cnn2C)NC1=O`, for which the ring closure, yield after HPLC in data set [1] stood at 16.8%.
In data set [1], `CC(C)[C@H]1/C=C/C[C@H](NC(=O)OC(C)(C)C)c2cc(ccn2)-c2c(cnn2C)NC1=O` showed a ring closure, yield after HPLC of 16.8%.
As for `C[C@@H]1/C=C/C[C@H](NC(=O)OCc2ccccc2)c2cc(ccn2)-c2c(cnn2CCOC(C)(C)C)NC1=O`, the ring closure, isolated yield in data set [2] was 38%.
Turning to `C[C@@H]1CCC[C@H](N2CCC(c3c(F)ccc(Cl)c3F)=CC2=O)c2cc(ccn2)-c2cn[nH]c2NC1=O` [Example 221], the Ki – broadly, a dissociation constant, usually derived from enzyme kinetics or from competition with a known ligand – in data set [3] was 1320 nM.
